Test results as given in US6403575B1, “3-Pyridyl enantiomers and their use as analgesics” (Abbott Laboratories, priority 1996, dated 2002).
Structures can show the parent of a compound that is named as a salt. Where two headings read alike, the source gives them in different places.

What was measured:
[1] = target: T1, neuronal nicotinic acetylcholine receptors (Rattus norvegicus, UniProt P09483+P12390); experiment: [3H]-cytisine binding to neuronal nicotinic acetylcholine receptors, whole rat brain membranes; conditions: [3H]-cytisine 1.25 nM, whole rat brain membranes; read-out: [3H] CYT Ki
T1 construct: crude synaptic membrane preparations from whole rat brain; from tissue; host or cells: whole rat brain, crude synaptic membranes
Method: Protocol for Determination of Nicotinic Acetylcholine Channel Receptor Binding Potencies of Ligands
Binding of [^3H]-cytisine ([^3H]-CYT) to neuronal nicotinic acetylcholine receptors was accomplished using crude synaptic membrane preparations from whole rat brain (Pabreza et al., Molecular Pharmacol., 1990, 39:9). Washed membranes were stored at −80° C. prior to use. Frozen aliquots were slowly thawed and resuspended in 20 volumes of buffer (containing: 120 mM NaCl, 5 mM KCl, 2 mM MgCl2, 2 mM CaCl2 and 50 mM Tris-Cl, pH 7.4 @4° C.). After centrifuging at 20,000×g for 15 minutes, the pellets were resuspended in 30 volumes of buffer. Homogenate (containing 125-150 μg protein) was added to triplicate tubes containing concentrations of test compound and [^3H]-CYT (1.25 nM) in a final volume of 500 μL. Samples were incubated for 60 minutes at 4° C., then rapidly filtered through Whatman GF/B filters presoaked in 0.5% polyethyleneimine using 3×4 mL of ice-cold buffer. The filters are counted in 4 mL of Ecolume® (ICN). Nonspecific binding was determined in the presence of 10 μM (−)-nicotine and values were expressed as a percentage of total binding.

[2] = target: T2, peripheral ganglionic receptors (Homo sapiens, UniProt P30926+P32297); experiment: 86Rb+ flux activation in IMR-32 human neuroblastoma cells; format: cell-based; conditions: 1 μM compound, % of maximum response to (S)-nicotine
T2 construct: Cells of the IMR-32 human neuroblastoma clonal cell line (ATCC, Rockville, Md.); host or cells: IMR-32 human neuroblastoma cells
Method: Protocol for the Determination of Ability of Nicotinic Acetylcholine Receptor Ligands to Activate Peripheral Ganglionic Receptors
Cells of the IMR-32 human neuroblastoma clonal cell line (ATCC, Rockville, Md.) were maintained in a log phase of growth according to established procedures. Experimental cells were seeded at a density of 500,000 cells/mL into a 24-well tissue culture dish. Plated cells were allowed to proliferate for at least 48 hours before loading with 2 μCi/mL of ^86Rb^+ (35 Ci/mmol) overnight at 37° C. The ^86Rb^+ efflux assays were performed according to previously published protocols (Lukas, R. J., J. Pharmacol. Exp. Ther., 265: 294-302, 1993) except serum-free Dulbecco's Modified Eagle's Medium was used during the ^86Rb^+ loading, rinsing, and agonist-induced efflux steps. Data reflect the activation of ^86Rb^+ flux at a concentration of 1 μM, and reflect the response as a percentage of the maximum response elicited by (S)-nicotine.

mice = experiment: Mouse Hot Plate Paradigm; format: in vivo; parameters: key to MED Hot plate model (μmol/kg, i.p.): NS = no significant effect observed relative to saline controls at the doses tested; conditions: 30 minutes prior to testing, 55° C.; for minimal effective dose: ip, 0.5 h, i.p., read-out: MED Hot plate model (μmol/kg, i.p.)
rat spinal cord cultures = experiment: Neuroprotection against substance P or glutamate toxicity in primary spinal cord cultures (LDH release); format: cell-based; conditions: for block of SP-induced toxicity: SP 30 μM, spantide II 100 μM, MK-801

T1 sequence (P09483 31-630): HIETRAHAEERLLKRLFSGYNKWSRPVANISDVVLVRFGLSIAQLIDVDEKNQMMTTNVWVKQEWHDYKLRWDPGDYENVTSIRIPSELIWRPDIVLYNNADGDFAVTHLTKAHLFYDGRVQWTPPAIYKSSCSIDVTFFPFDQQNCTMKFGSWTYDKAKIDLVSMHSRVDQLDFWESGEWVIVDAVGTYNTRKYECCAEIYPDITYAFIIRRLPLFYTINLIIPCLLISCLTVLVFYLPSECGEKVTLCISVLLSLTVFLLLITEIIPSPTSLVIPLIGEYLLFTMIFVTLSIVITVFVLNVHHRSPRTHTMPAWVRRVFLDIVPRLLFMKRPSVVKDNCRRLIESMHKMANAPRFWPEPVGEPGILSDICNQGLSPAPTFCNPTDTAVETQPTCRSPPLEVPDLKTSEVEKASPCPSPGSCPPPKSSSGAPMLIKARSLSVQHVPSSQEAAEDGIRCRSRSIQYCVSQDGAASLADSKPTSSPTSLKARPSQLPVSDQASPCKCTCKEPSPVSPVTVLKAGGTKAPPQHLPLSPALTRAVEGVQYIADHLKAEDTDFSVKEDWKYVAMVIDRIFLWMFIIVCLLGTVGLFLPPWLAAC
T1 sequence (P12390 25-500): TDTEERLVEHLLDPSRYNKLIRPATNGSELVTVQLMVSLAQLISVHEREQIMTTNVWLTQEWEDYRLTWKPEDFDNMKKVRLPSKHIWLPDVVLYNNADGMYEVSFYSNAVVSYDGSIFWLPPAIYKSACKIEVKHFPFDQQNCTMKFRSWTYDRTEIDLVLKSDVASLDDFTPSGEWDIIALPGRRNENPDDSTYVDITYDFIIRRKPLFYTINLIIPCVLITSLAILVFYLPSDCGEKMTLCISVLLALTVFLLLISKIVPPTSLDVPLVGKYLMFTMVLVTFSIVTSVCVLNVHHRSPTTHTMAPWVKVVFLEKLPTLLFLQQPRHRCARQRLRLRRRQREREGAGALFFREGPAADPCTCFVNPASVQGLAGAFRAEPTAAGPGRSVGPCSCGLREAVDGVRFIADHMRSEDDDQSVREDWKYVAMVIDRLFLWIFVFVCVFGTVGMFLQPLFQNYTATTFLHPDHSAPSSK
T2 sequence (P32297 32-505): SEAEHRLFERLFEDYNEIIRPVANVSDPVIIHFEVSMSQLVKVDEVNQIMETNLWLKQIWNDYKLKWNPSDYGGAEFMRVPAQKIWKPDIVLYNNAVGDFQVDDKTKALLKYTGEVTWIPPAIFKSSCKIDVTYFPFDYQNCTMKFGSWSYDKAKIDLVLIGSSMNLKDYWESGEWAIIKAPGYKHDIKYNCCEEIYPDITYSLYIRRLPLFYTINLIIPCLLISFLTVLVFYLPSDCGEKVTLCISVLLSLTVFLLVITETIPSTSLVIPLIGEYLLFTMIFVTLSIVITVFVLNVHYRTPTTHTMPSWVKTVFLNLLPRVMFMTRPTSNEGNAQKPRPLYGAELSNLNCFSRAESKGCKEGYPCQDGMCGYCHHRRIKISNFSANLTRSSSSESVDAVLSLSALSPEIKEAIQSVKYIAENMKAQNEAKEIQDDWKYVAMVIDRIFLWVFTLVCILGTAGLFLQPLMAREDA
T2 sequence (P30926 22-498): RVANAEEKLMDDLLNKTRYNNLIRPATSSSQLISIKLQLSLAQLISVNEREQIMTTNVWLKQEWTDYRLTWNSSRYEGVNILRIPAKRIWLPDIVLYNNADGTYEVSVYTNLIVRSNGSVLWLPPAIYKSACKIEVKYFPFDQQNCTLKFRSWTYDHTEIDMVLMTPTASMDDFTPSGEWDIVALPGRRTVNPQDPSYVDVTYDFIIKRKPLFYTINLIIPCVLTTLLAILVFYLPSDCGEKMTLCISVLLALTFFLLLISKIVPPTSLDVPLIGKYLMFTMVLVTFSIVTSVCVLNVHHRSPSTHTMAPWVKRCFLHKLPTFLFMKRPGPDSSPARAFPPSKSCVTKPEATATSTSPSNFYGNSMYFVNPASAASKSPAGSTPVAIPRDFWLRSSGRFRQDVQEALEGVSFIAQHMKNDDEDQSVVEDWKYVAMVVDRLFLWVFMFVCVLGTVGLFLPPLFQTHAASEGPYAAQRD

Row | Molecule | melting point | further results
1 | Cc1ccc(OC[C@H]2CCN2)cn1 (as salt: HCl) [Example 115, 6-Methyl-3-(2-(R)-azetidinylmethoxy)pyridine] | 134 to 136 °C | –
2 | Fc1cncc(OC[C@@H]2CCN2)c1 (as salt: hydrochloride) [Example 10, 5-((2S)-Azetidinylmethyloxy)-3-fluoropyridine dihydrochloride] | 165 to 167 °C | –
3 | Brc1cncc(OC[C@@H]2CCN2)c1 (as salt: hydrochloride) [Example 12, 5-((2S)-Azetidinylmethyloxy)-3-bromopyridine dihydrochloride] | 163 to 165 °C | –
4 | Clc1cc(OC[C@@H]2CCN2)cnc1Cl (as salt: hydrochloride) [Example 15, 5-((2S)-azetidinylmethoxy)-2,3-dichloropyridine hydrochloride] | 181 to 182 °C | –
5 | Clc1cc(OC[C@H]2CCN2)cnc1Cl (as salt: hydrochloride) [Example 16, 5-((2R)-azetidinylmethoxy)-2,3-dichloropyridine hydrochloride] | 166 to 168 °C | –
6 | Clc1ncc(OC[C@@H]2CCN2)cc1Br (as salt: hydrochloride) [Example 17, 5-((2S)-azetidinylmethoxy)-3-bromo-2-chloropyridine hydrochloride] | 168 to 169 °C | –
7 | Clc1ncc(OC[C@H]2CCN2)cc1Br (as salt: hydrochloride) [Example 18, 5-((2R)-azetidinylmethoxy)-3-bromo-2-chloropyridine hydrochloride] | 175 °C | –
8 | Cc1ccc(OC[C@@H]2CCN2)cn1 (as salt: hydrochloride) [Example 20, 5-((2S)-Azetidinylmethyloxy)-2-methylpyridine dihydrochloride] | 141 to 144 °C | –
9 | C=Cc1cncc(OC[C@@H]2CCN2)c1 (as salt: hydrochloride) [Example 22, 5-Vinyl-3-((2S)-Azetidinylmethyloxy)lpyridine dihydrochloride] | 88 to 90 °C | –
10 | CCCc1cncc(OC[C@@H]2CCN2)c1 (as salt: hydrochloride) [Example 24, 5-Propyl-3-((2S)-azetidinylmethyloxy)lpyridine hydrochloride] | 79 to 80 °C | –
11 | C=Cc1cc(OC[C@@H]2CCN2)cnc1Cl (as salt: hydrochloride) [Example 26, 2-Chloro-3-vinyl-5-((2S)-azetidinylmethoxy)pyridine hydrochloride] | 121 °C (dec.) | –
12 | CCc1cc(OC[C@@H]2CCN2)cnc1Cl (as salt: hydrochloride) [Example 27, 2-Chloro-3-ethyl-5-((2S)-azetidinylmethoxy)pyridine hydrochloride] | 102 to 104 °C | –
13 | CCCc1cc(OC[C@@H]2CCN2)cnc1Cl (as salt: hydrochloride) [Example 28, 2-Chloro-3-propyl-5-((2S)-azetidinylmethoxy)pyridine hydrochloride] | 148 to 150 °C | –
14 | CCCCc1cc(OC[C@@H]2CCN2)cnc1Cl (as salt: hydrochloride) [Example 29, 3-Butyl-2-chloro-5-((2S)-azetidinylmethoxy)pyridine hydrochloride] | 88 to 90 °C | –
15 | C#Cc1cc(OC[C@@H]2CCN2)cnc1Cl (as salt: hydrochloride) [Example 30, 2-Chloro-3-ethynyl-5-((2S)-azetidinylmethoxy)pyridine hydrochloride] | 90 °C (dec.) | –
16 | C=Cc1cc(OC[C@@H]2CCN2)cnc1C (as salt: hydrochloride) [Example 35, 6-Methyl-5-vinyl-3-((2S)-azetidinylmethoxy)pyridine hydrochloride] | 154 to 155 °C | –
17 | CCc1cc(OC[C@@H]2CCN2)cnc1C (as salt: hydrochloride) [Example 36, 6-Ethyl-6-methyl-3-((2S)-azetidinylmethoxy)pyridine hydrochloride] | 150 to 153 °C | –
18 | Fc1cncc(OC[C@H]2CCN2)c1 (as salt: salt) [Example 11, 5-((2R)-Azetidinylmethyloxy)-3-fluoropyridine dibenzoate] | 163 to 165 °C | –

Row | Molecule | melting point | further results
19 | Cc1cc(OC[C@@H]2CCN2)cnc1F (as salt: salt) [Example 32, 5-((2S)-azetidinylmethoxy)-3-methyl-2-fluoropyridine benzoate] | 104 to 108 °C | –
20 | Fc1ncc(OCC2CCN2)cc1Cl (centres unmarked) (as salt: tosylate) [Example 33, 5-((29)-azetidinylmethoxy)-3-chloro-2-fluoropyridine tosylate] | 99 °C | –
21 | Fc1ccc(OC[C@@H]2CCN2)c(F)n1 (as salt: tosylate) [Example 116, 2.6-Difluoro-3-(2-(S)-azetidinylmethoxy)pyridine tosylate] | 140 to 143 °C | –
22 | Fc1ncc(OC[C@H]2CCN2)cc1Br (as salt: tosylate) [Example 125, 5-bromo-6-fluoro-3-(2-(R)-azetidinylmethoxy)pyridine] | 238 to 240 °C | –
23 | CCc1cc(OC[C@@H]2CCN2)cnc1F (as salt: tosylate) [Example 126, 5-ethyl-6-fluoro-3-(2-(S)-azetidinylmethoxy)pyridine] | 106 to 108 °C | –
24 | Fc1cncc(OC[C@H]2CCN2)c1 [Example 11, 5-((2R)-Azetidinylmethyloxy)-3-fluoropyridine dibenzoate] | – | Ki [1]: 0.34 nM; IMR-32 % maximal nicotine response at 1 μM Cmpd conc'n [2]: 31%; MED Hot plate model (μmol/kg, i.p.) (mice): NS
25 | Cc1cncc(OC[C@@H]2CCN2)c1 [Example 13, 5-Methyl-3-((2S)-Azetidinylmethyloxy)pyridine dibenzoate] | – | Ki [1]: 0.05 nM; IMR-32 % maximal nicotine response at 1 μM Cmpd conc'n [2]: 27%; MED Hot plate model (μmol/kg, i.p.) (mice): NS
26 | Cc1cncc(OC[C@H]2CCN2)c1 [Example 14, 5-Methyl-3-((2R)-azetidinylmethyloxy)pyridine hydrochloride] | – | Ki [1]: 0.18 nM; IMR-32 % maximal nicotine response at 1 μM Cmpd conc'n [2]: 15%; minimal effective dose (mice): 62 µmol/kg
27 | Clc1ncc(OC[C@H]2CCN2)cc1Br [Example 18, 5-((2R)-azetidinylmethoxy)-3-bromo-2-chloropyridine hydrochloride] | – | Ki [1]: 0.02 nM; IMR-32 % maximal nicotine response at 1 μM Cmpd conc'n [2]: 93%; minimal effective dose (mice): 0.62 µmol/kg
28 | Cc1ncc(OC[C@@H]2CCN2)cc1Br [Example 34, 5-Bromo-6-methyl-3-((2S)-azetidinylmethoxy)pyridine dihydrochloride] | – | Ki [1]: 0.02 nM; minimal effective dose (mice): 0.62 µmol/kg
29 | C=Cc1cc(OC[C@@H]2CCN2)cnc1C [Example 35, 6-Methyl-5-vinyl-3-((2S)-azetidinylmethoxy)pyridine hydrochloride] | – | Ki [1]: 0.22 nM; MED Hot plate model (μmol/kg, i.p.) (mice): NS
30 | CCc1cc(OC[C@@H]2CCN2)cnc1C [Example 36, 6-Ethyl-6-methyl-3-((2S)-azetidinylmethoxy)pyridine hydrochloride] | – | Ki [1]: 0.04 nM; MED Hot plate model (μmol/kg, i.p.) (mice): NS
31 | COc1ccc(OC[C@H]2CCN2)cn1 [Example 119, 6-Methoxy-3-(2(R)-azetidinylmethoxy)pyridine] | 139 to 142 °C | Ki [1]: 0.67 nM
32 | Cl.O=[N+]([O-])c1cncc(OC[C@@H]2CCN2)c1 [Example 132, 5-nitro-3-(2-(S)-azetidinylmethoxy)pyridine hydrochloride] | 162 to 164 °C (dec.) | Ki [1]: 0.33 nM
33 | C[C@]12N[C@H](Cc3ccccc31)c1ccccc12 [MK-801] | – | block of Glu-induced toxicity (rat spinal cord cultures; Glu 300 μM, MK-801 1 μM): blocked; block of SP-induced toxicity (rat spinal cord cultures): cannot prevent
34 | CCN1C[C@]2(COC(=O)c3ccccc3N3C(=O)C[C@H](C)C3=O)CC[C@H](OC)[C@@]34[C@@H]5C[C@H]6[C@H](OC)[C@@H]5[C@](O)(C[C@@H]6OC)[C@@](O)([C@@H](OC)[C@H]23)[C@@H]14 [methyllycaconitine] | – | block of the neuroprotective effect by nicotinic antagonists (rat spinal cord cultures; mecamylamine 10 μM, MLA 10 nM, α-BTX 1 nM): blocked
35 | spantide II | – | block of SP-induced toxicity (rat spinal cord cultures): blocked
36 | α-bungarotoxin | – | block of the neuroprotective effect by nicotinic antagonists (rat spinal cord cultures): blocked
